Results as given in patent US12421253B2 (Mirati Therapeutics, Inc., priority 2020, dated 2025).

Tests used:
[1] = tested on: NCI-H727 (G12V) cells, phospho-ERK; test: Inhibition of KRas-mediated phosphorylation of ERK (phospho-ERK/GAPDH antibody detection, LI-COR); format: cell-based; conditions: Homo sapiens, 3 hours
Experimental: (§1) AsPC-1 (G12D, ATCC CRL-1682), A549 (G12S, ATCC CCL-185), HCT116 (G13D, ATCC CCL-247) cells were grown in DMEM medium supplemented with 10% fetal bovine serum and Penicillin/Streptomycin. NCI-H358 (G12C, ATCC CRL-5807), NCI-H460 (Q61H, ATCC HTB-117), NCI-H727 (G12V, ATCC CRL-5815), MKN1 (WTdep, JCRB JCRB0252), PSN-1 (G12R, ATCC CRM-CRL-3211) cells were grown in RPMI medium supplemented with 10% fetal bovine serum, 10 mM HEPES, 10 mM Sodium Pyruvate, and Penicillin/Streptomycin. Cells were plated in black well clear bottom tissue culture treated 96 well plates (Corning, 3904) at a density of 20,000 cells/well and allowed to attach for 12-14 hours. Diluted compounds were then added in a final concentration of 0.5% DMSO. After 3 hours, 50 μL of 4.0% formaldehyde was added and the plates incubated at room temperature for 20 minutes. The plates were then dumped and permeabilized with 150 μL of ice cold 100% methanol for 10 minutes. Non-specific antibody binding to the plates was blocked using 100 μL Odyssey blocking buffer (LI-COR Biosciences, 927-60010) for 1 hour at room temperature.
(§2) The amount of phospho-ERK was determined using an antibody specific for the phosphorylated form of ERK and compared to the amount of GAPDH. Primary antibodies used for the detection were added as follows: Phospho-ERK (Cell Signaling CS-9101) diluted 1:500 and GAPDH (Millipore MAB374) diluted 1:5000 in Odyssey blocking buffer+0.05% Tween 20. The plates were incubated overnight at 4 C. The plates were washed 3× with 150 uL PBS+0.1% Tween 20.
(§3) Secondary antibodies used to visualize primary antibodies were added as follows: Goat Anti-Rabbit-800 (LI-COR, 926-32211) and Goat Anti-Mouse-680 (LI-COR, 926-68070) diluted 1:800 both in Odyssey blocking buffer+0.05% Tween 20 and were incubated for 1 hour at room temperature. The plates were washed 3× with 150 uL PBS+[…]. Plates were imaged dry on a Li—COR Odyssey CLX plate reader.
(§4) The phospho-ERK (Thr202/Tyr204) signal was normalized to the GAPDH signal for each well and percent of DMSO control values were calculated. IC50 values were generated using a 4-parameter fit of the dose response curve.

[2] = tested on: NCI-H460 (Q61H) cells, phospho-ERK; test: as above; format: cell-based; conditions: Homo sapiens, 3 hours
Experimental: as §1, §2, §3, §4

[3] = tested on: AsPC-1 (G12D) cells, phospho-ERK; test: as above; format: cell-based; conditions: Homo sapiens, ASPC1, 3 hours
Experimental: as §1, §2, §3, §4

KRas^G12D = target: T1, KRas^G12D (Homo sapiens, UniProt P01116, G12D); test: KRas binding assay (TR-FRET displacement of Cy5 labelled tracer)
T1 construct: […]; biotin (biotinylated); purchased Accelegan Inc
T1 sequence (P01116 1-169 isoform P01116-2 G12D): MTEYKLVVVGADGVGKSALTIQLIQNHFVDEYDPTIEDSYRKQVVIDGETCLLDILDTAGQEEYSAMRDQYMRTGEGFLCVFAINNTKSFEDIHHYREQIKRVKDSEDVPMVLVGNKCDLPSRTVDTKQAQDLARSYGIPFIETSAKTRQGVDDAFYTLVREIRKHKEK

KRas^G12R = target: T2, KRas^G12R (Homo sapiens, UniProt P01116, G12R); test: as above
T2 construct: […]; biotin (biotinylated); purchased Accelegan Inc
T2 sequence (P01116 1-169 isoform P01116-2 G12R): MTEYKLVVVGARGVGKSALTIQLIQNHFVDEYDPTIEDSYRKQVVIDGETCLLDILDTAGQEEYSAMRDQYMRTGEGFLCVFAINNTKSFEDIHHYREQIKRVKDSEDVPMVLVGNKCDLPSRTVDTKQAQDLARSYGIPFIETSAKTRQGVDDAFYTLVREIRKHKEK

KRas^G12V = target: T3, KRas^G12V (Homo sapiens, UniProt P01116, G12V); test: as above
T3 construct: […]; biotin (biotinylated); purchased Accelegan Inc
T3 sequence (P01116 1-169 isoform P01116-2 G12V): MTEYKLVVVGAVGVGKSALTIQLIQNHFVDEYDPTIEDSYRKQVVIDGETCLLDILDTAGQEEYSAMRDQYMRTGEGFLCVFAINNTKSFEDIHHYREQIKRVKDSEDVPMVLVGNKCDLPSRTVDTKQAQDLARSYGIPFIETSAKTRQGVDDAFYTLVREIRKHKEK

MKN1 cells, pERK = test: Inhibition of KRas phosphorylation of ERK (Cisbio HTRF Advanced pERK assay); format: cell-based; conditions: Homo sapiens, MKN-1, 3 h, read-out: Inhibition (HTRF IC50 nM) of KRas-mediated Phosphorylation of ERK, MKN1
Outline: (§5)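 pERK measured by HTRF in lysates from cells treated 3 h with compound, 10 uM top, 3-fold steps, 10 doses, 0.8% DMSO final. Cells (6,000/well, RPMI 10% FBS) had been plated overnight at 37 °C; 0.2 uM trametinib defined minimum signal; antibody detection 2 h at room temperature.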

PSN1 cells, pERK = test: as above; format: cell-based; conditions: Homo sapiens, PSN1, 3 h, read-out: Inhibition (HTRF IC50 nM) of KRas-mediated Phosphorylation of ERK, PSN1
Outline: as §5

H727 cells, pERK = test: as above; format: cell-based; conditions: Homo sapiens, NCI-H727, 3 h, read-out: Inhibition (HTRF IC50 nM) of KRas-mediated Phosphorylation of ERK, H727
Outline: as §5

ASPC1 cells, pERK = test: as above; format: cell-based; conditions: Homo sapiens, ASPC1, 3 h, AsPC-1 cells, read-out: Inhibition (HTRF IC50 nM) of KRas-mediated Phosphorylation of ERK, AsPC-1
Outline: as §5

H460 cells, pERK = test: as above; format: cell-based; conditions: Homo sapiens, NCI-H460, 3 hrs, read-out: Inhibition (HTRF IC50 nM) of KRas-mediated Phosphorylation of ERK, H460
Outline: as §5

HCT116 cells, pERK = test: as above; format: cell-based; conditions: Homo sapiens, HCT-116, 3 hrs, read-out: Inhibition (HTRF IC50 nM) of KRas-mediated Phosphorylation of ERK, HCT116
Outline: as §5

KRas^G12C = KRas^G12C (Homo sapiens, UniProt P01116, G12C); test: biochemical
Chain of KRas^G12C (P01116 1-169 isoform P01116-2 G12C): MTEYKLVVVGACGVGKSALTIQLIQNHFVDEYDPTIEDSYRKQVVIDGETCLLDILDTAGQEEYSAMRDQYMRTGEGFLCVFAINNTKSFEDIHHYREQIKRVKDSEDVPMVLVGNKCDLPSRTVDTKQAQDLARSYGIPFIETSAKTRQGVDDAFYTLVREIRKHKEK

KRas^G12A = target: T4, KRas^G12A (Homo sapiens, UniProt P01116, G12A); test: KRas binding assay (TR-FRET displacement of Cy5 labelled tracer)
T4 construct: […]; biotin (biotinylated); purchased Accelegan Inc
T4 sequence (P01116 1-169 isoform P01116-2 G12A): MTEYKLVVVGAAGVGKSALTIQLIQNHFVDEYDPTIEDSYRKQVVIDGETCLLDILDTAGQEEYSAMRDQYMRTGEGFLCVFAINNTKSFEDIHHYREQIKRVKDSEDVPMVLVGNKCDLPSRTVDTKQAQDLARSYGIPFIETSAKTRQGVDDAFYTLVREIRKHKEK

KRas^Q61H = KRas^Q61H (Homo sapiens, UniProt P01116, Q61H); test: biochemical
Chain of KRas^Q61H (P01116 1-169 isoform P01116-2 Q61H): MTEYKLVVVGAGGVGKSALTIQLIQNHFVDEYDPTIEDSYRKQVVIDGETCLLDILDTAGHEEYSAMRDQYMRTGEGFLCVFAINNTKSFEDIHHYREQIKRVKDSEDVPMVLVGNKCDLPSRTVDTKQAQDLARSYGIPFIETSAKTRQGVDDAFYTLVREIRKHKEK

KRas^G13D = KRas^G13D (Homo sapiens, UniProt P01116, G13D); test: biochemical
Chain of KRas^G13D (P01116 1-169 isoform P01116-2 G13D): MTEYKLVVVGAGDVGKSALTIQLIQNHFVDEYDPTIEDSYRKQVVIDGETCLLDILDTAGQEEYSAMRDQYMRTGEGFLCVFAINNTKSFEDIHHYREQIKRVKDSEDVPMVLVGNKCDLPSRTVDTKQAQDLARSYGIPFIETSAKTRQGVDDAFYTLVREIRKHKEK

KRas^G12S = target: T5, KRas^G12S (Homo sapiens, UniProt P01116, G12S); test: KRas binding assay (TR-FRET displacement of Cy5 labelled tracer)
T5 construct: […]; biotin (biotinylated); purchased Accelegan Inc
T5 sequence (P01116 1-169 isoform P01116-2 G12S): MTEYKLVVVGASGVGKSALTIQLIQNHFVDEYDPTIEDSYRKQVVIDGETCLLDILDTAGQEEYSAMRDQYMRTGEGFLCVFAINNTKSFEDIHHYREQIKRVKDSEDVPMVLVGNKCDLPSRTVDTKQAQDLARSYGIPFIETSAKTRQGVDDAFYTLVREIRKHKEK

KRas^WT = target: T6, KRas^WT (Homo sapiens, UniProt P01116); test: as above
T6 construct: […]; biotin (biotinylated); purchased Accelegan Inc
T6 sequence (P01116 1-169 isoform P01116-2): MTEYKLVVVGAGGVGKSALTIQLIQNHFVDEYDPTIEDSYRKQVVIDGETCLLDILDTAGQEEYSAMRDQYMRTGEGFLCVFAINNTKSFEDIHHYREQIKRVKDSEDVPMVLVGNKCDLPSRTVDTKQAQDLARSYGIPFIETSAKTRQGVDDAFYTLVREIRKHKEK

IC50 (H727 cells, pERK)	IC50 (ASPC1 cells, pERK)	IC50 (H460 cells, pERK)	IC50 (HCT116 cells, pERK)	SMILES	IC50 [1]	IC50 [2]	IC50 [3]	IC50 (KRas^G12D)	IC50 (KRas^G12R)	IC50 (KRas^G12V)	IC50 (MKN1 cells, pERK)	IC50 (PSN1 cells, pERK)	IC50 (KRas^G12C)	IC50 (KRas^G12A)	IC50 (KRas^Q61H)	IC50 (KRas^G13D)	IC50 (KRas^G12S)	IC50 (KRas^WT)
–	–	–	–	CCc1c(F)ccc2cc(O)cc(N3CCc4c(nc(OC[C@@]56CCCN5C[C@H](F)C6)nc4N4CCCn5nc(N)cc5C4)C3)c12 [Example 18, 4-(4-(2-amino-7,8-dihydro-4H-pyrazolo[1,5-a][1,4]diazepin-5(6H)-yl)-2-(((2R,7aS)-2-fluorohexahydro-1H-pyrrolizin-7a-yl)methoxy)-5,6-dihydropyrido[3,4-d]pyrimidin-7(8H)-yl)-5-ethyl-6-fluoronaphthalen-2-ol]	503 nM	317 nM	182 nM	≤ 2 nM	≤ 2 nM	≤ 2 nM	22 nM	≥ 10000 nM	–	–	–	–	–	–
–	–	–	–	CCc1c(F)ccc2cc(O)cc(N3CCc4c(nc(OC[C@@]56CCCN5C[C@H](F)C6)nc4N4CCCC5(CC(=O)N5)C4)C3)c12 (stereo partly drawn) [Example 21, 6-(7-(8-ethyl-7-fluoro-3-hydroxynaphthalen-1-yl)-2-(((2R,7aS)-2-fluorohexahydro-1H-pyrrolizin-7a-yl)methoxy)-5,6,7,8-tetrahydropyrido[3,4-d]pyrimidin-4-yl)-1,6-diazaspiro[3.5]nonan-2-one]	466 nM	202 nM	204 nM	≤ 2 nM	≤ 2 nM	≤ 2 nM	9 nM	646 nM	–	–	–	–	–	–
268 nM	111 nM	545 nM	1110 nM	Nc1cc2n(n1)CCCN(c1nc(OC[C@@]34CCCN3C[C@H](F)C4)nc3c1CCN(c1cc(O)cc4ccc(F)c(Br)c14)C3)C2 [Example 212, 4-(4-(2-amino-7,8-dihydro-4H-pyrazolo[1,5-a][1,4]diazepin-5(6H)-yl)-2-(((2R,7aS)-2-fluorohexahydro-1H-pyrrolizin-7a-yl)methoxy)-5,6-dihydropyrido[3,4-d]pyrimidin-7(8H)-yl)-5-bromo-6-fluoronaphthalen-2-ol]	–	–	–	≤ 2 nM	≤ 2 nM	≤ 2 nM	61 nM	≥ 10000 nM	–	–	–	–	–	–
–	–	–	–	CCc1c(F)ccc2cc(O)cc(N3CCc4c(nc(OC[C@@]56CCCN5C[C@H](F)C6)nc4N4CCCC(O)C4)C3)c12 (stereo partly drawn) [Example 27, 1-(7-(8-ethyl-7-fluoro-3-hydroxynaphthalen-1-yl)-2-(((2R,7aS)-2-fluorohexahydro-1H-pyrrolizin-7a-yl)methoxy)-5,6,7,8-tetrahydropyrido[3,4-d]pyrimidin-4-yl)piperidin-3-ol]	549 nM	282 nM	808 nM	≤ 2 nM	≤ 2 nM	≤ 2 nM	9 nM	2720 nM	–	–	–	–	–	–
–	–	–	–	CCc1c(F)ccc2cc(O)cc(N3CCc4c(nc(OC[C@@]56CCCN5C[C@H](F)C6)nc4N4CCCCC(S(C)(=O)=O)C4)C3)c12 (stereo partly drawn) [Example 28, 5-ethyl-6-fluoro-4-(2-(((2R,7aS)-2-fluorohexahydro-1H-pyrrolizin-7a-yl)methoxy)-4-(3-(methylsulfonyl)azepan-1-yl)-5,6-dihydropyrido[3,4-d]pyrimidin-7(8H)-yl)naphthalen-2-ol]	987 nM	494 nM	1010 nM	≤ 2 nM	≤ 2 nM	≤ 2 nM	36 nM	≥ 10000 nM	–	–	–	–	–	–
–	–	–	–	CCc1c(F)ccc2cc(O)cc(N3CCc4c(nc(OC[C@@]56CCCN5C[C@H](F)C6)nc4N4CCC(O)C(CO)CC4)C3)c12 (stereo partly drawn) [Example 33, 1-(7-(8-ethyl-7-fluoro-3-hydroxynaphthalen-1-yl)-2-(((2R,7aS)-2-fluorohexahydro-1H-pyrrolizin-7a-yl)methoxy)-5,6,7,8-tetrahydropyrido[3,4-d]pyrimidin-4-yl)-5-(hydroxymethyl)azepan-4-ol]	1860 nM	398 nM	1360 nM	5 nM	≤ 2 nM	≤ 2 nM	11 nM	≥ 10000 nM	–	–	–	–	–	–
530 nM	179 nM	352 nM	672 nM	C[C@@]1(O)CCCN(c2nc(OC[C@@]34CCCN3C[C@H](F)C4)nc3c2CCN(c2cc(O)cc4ccc(F)c(Br)c24)C3)C1 [Example 222, (R)-1-(7-(8-bromo-7-fluoro-3-hydroxynaphthalen-1-yl)-2-(((2R,7aS)-2-fluorotetrahydro-1H-pyrrolizin-7a(5H)-yl)methoxy)-5,6,7,8-tetrahydropyrido[3,4-d]pyrimidin-4-yl)-3-methylpiperidin-3-ol]	–	–	–	≤ 2 nM	≤ 2 nM	≤ 2 nM	37 nM	2820 nM	–	–	–	–	–	–
423 nM	112 nM	421 nM	1170 nM	C[C@@]1(O)CCCN(c2nc(OC[C@@]34CCCN3C[C@H](F)C4)nc3c2CCN(c2cc(O)cc4ccc(F)c(Cl)c24)C3)C1 [Example 68, (R)-1-(7-(8-chloro-7-fluoro-3-hydroxynaphthalen-1-yl)-2-(((2R,7aS)-2-fluorohexahydro-1H-pyrrolizin-7a-yl)methoxy)-5,6,7,8-tetrahydropyrido[3,4-d]pyrimidin-4-yl)-3-methylpiperidin-3-ol]	–	–	–	≤ 2 nM	3 nM	≤ 2 nM	71 nM	2260 nM	–	–	–	–	–	–
–	–	–	–	CCc1c(F)ccc2cc(O)cc(N3CCc4c(nc(OC[C@@]56CCCN5C[C@H](F)C6)nc4N4CCC(c5[nH]ncc5N)C4)C3)c12 (stereo partly drawn) [Example 26, 4-(4-(3-(4-amino-1H-pyrazol-5-yl)pyrrolidin-1-yl)-2-(((2R,7aS)-2-fluorohexahydro-1H-pyrrolizin-7a-yl)methoxy)-5,6-dihydropyrido[3,4-d]pyrimidin-7(8H)-yl)-5-ethyl-6-fluoronaphthalen-2-ol]	3120 nM	3260 nM	10000 nM	110 nM	5 nM	4 nM	–	–	7 nM	7 nM	22 nM	34 nM	10 nM	24 nM
